Results published in patent publication US6790540B2, “Organic electroluminescent element material and organic electroluminescent element” (Nippon Steel Chemical Co., Ltd., priority 2000, dated 2004).

What was measured:
[1] = Solubility (wt %) of compounds in chloroform and toluene; format: physicochemical; set-up: key: ◯: ∘, completely soluble; Δ, a slight amount remaining insoluble; X, a considerable amount remaining insoluble; settings: for Solubility, Chloroform 0.1% soln. / Solubility, Toluene 0.1% soln.: 0.1% soln. (wt %); for Solubility, Chloroform 1% soln. / Solubility, Toluene 1% soln.: 1% soln. (wt %); for Solubility, Chloroform 5% soln. / Solubility, Toluene 5% soln.: 5% soln. (wt %); for Solubility, Chloroform 10% soln. / Solubility, Toluene 10% soln.: 10% soln. (wt %)
Source text: The symbols in the table stand for the following: ∘, completely soluble; Δ, a slight amount remaining insoluble; X, a considerable amount remaining insoluble.

[2] = Maximum PL wavelength in chloroform; format: physicochemical; settings: in chloroform (Compound B: 0.1 mM, excitation 350 nm)
Method: Next, 5.0 g (0.016 mole) of Compound J, 2.12 g (0.016 mole) of zinc chloride and 4.74 g (0.047 mole) of triethylamine were suspended in 30 ml of ethanol and allowed to react at room temperature. After 3 hours, the separated yellow powder was filtered, washed with ethanol, and purified by column chromatography to give […] (90.0%) of Compound B as yellow crystals. The maximum PL wavelength of Compound B in chloroform was 509 nm (concentration, 0.1 mM; solvent, CHCl3; excitation, 350 nm).

SMILES	Solubility, Chloroform 0.1% soln. [1]	Solubility, Chloroform 1% soln. [1]	Solubility, Chloroform 5% soln. [1]	Solubility, Chloroform 10% soln. [1]	Solubility, Toluene 0.1% soln. [1]	Solubility, Toluene 1% soln. [1]	Solubility, Toluene 5% soln. [1]	Solubility, Toluene 10% soln. [1]	maximum PL wavelength [2]
c1cnc2c([O][Al]([O]c3cccc4cccnc34)[O]c3cccc4cccnc34)cccc2c1 [Alq3, aluminum-8-hydroxyquinoline complex]	Δ	X	X	X	X	X	X	X	–
CS(=O)(=O)[N-]c1cccc2cccnc12.CS(=O)(=O)[N-]c1cccc2cccnc12.[Zn+2] [Compound M, Zinc bis-8-(methylsulfonamido)quinolinate]	Δ	X	X	X	X	X	X	X	505 nm

Now from value to compound:

Solubility, Chloroform 0.1% soln. [1]	Solubility, Chloroform 1% soln. [1]	Solubility, Chloroform 5% soln. [1]	Solubility, Chloroform 10% soln. [1]	Solubility, Toluene 0.1% soln. [1]	Solubility, Toluene 1% soln. [1]	Solubility, Toluene 5% soln. [1]	Solubility, Toluene 10% soln. [1]	maximum PL wavelength [2]	SMILES
◯	◯	◯	◯	◯	◯	Δ	X	–	CCCCCCCCS(=O)(=O)[N-]c1ccccc1-c1nc2ccccc2o1.CCCCCCCCS(=O)(=O)[N-]c1ccccc1-c1nc2ccccc2o1.[Zn+2] [Compound 6a, zinc bis-2-(2-(n-octylsulfonamido)phenyl)benzoxazolate]
–	–	–	–	–	–	–	–	509 nm	CCCCCCCCS(=O)(=O)[N-]c1cccc2cccnc12.CCCCCCCCS(=O)(=O)[N-]c1cccc2cccnc12.[Zn+2] [Compound B, zinc bis-8-(n-octylsulfonamido)quinolinate]
◯	Δ	X	X	X	X	X	X	510 nm	CCCCS(=O)(=O)[N-]c1cccc2cccnc12.CCCCS(=O)(=O)[N-]c1cccc2cccnc12.[Zn+2] [Compound N, Zinc bis-8-(n-butylsulfonamido)quinolinate]
